Read-outs that look alike come from different tables or passages of the source.
Experiments:
[1] = molecular target: T1, GST-tagged truncated LRRK2 containing residues 970 to 2527 (Homo sapiens, UniProt Q5S007); experiment: In vitro LRRKtide peptide-substrate kinase assay, single dose testing (10 μM); assay type: biochemical; conditions: LRRKtide assay @ 10 μM inhibitor; GST-LRRK2 970-2527; 10 μM ATP; mean, N = 3; solvent control = 100%
T1 construct: GST-tagged truncated LRRK2 containing residues 970 to 2527 (Life Technologies); purchased Life Technologies
T1 sequence (Q5S007 970-2527): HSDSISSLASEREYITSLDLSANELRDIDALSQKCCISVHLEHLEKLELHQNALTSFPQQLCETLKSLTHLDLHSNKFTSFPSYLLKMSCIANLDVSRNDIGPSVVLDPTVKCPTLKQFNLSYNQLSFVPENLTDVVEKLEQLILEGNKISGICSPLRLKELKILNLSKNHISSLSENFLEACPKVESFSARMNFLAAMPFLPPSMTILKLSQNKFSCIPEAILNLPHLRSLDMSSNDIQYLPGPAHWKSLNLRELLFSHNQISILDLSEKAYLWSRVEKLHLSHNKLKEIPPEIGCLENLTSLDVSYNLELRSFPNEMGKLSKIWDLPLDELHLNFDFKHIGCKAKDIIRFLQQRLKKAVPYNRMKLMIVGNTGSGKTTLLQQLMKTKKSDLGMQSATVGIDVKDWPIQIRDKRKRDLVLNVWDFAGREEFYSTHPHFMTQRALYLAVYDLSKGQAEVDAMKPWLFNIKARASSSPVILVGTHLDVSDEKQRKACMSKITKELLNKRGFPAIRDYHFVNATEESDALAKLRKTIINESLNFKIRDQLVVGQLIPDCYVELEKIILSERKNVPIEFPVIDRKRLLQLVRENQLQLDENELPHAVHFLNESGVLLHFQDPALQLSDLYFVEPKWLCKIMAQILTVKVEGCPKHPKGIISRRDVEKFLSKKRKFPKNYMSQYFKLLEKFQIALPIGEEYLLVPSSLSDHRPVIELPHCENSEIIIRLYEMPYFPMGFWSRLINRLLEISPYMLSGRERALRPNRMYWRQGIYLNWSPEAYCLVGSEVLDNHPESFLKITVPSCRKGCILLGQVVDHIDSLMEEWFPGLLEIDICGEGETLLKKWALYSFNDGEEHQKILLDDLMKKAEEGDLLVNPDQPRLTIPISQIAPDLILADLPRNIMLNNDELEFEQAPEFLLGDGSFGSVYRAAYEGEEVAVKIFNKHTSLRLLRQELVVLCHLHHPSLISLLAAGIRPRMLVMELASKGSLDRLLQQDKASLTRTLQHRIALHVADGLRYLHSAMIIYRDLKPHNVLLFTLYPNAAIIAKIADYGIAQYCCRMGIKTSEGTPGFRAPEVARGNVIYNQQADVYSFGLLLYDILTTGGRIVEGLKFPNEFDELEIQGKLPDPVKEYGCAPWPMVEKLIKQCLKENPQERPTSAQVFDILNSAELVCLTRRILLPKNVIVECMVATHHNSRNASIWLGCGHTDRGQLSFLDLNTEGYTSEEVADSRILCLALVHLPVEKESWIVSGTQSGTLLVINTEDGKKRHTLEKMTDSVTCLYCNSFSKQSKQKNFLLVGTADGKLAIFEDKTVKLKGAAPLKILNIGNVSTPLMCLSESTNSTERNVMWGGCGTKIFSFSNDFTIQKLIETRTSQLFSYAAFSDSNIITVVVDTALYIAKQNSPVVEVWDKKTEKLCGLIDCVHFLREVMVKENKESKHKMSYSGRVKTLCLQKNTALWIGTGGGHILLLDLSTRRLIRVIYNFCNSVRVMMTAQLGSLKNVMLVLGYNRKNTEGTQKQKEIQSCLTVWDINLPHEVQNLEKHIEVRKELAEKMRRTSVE

LRRK2 phospho-Ser935 = molecular target: T2, LRRK2 phospho-Ser935 (Homo sapiens, UniProt Q5S007); experiment: Cellular LRRK2 phosphoserine 935 dephosphorylation spotblot assay in SH-SY5Y cells stably expressing 3xFlag-LRRK2; assay type: cell-based; conditions: for Phosphorylation level relative to solvent (%) (cellular pS935 assay): @ 5 μM for 2 h, SH-SY5Y stably expressing LRRK2, pS935/total LRRK2; for IC50: read-out: IC50 cellular (pS935)
T2 construct: expressed in transfected cells
T2 sequence (Q5S007 whole entry): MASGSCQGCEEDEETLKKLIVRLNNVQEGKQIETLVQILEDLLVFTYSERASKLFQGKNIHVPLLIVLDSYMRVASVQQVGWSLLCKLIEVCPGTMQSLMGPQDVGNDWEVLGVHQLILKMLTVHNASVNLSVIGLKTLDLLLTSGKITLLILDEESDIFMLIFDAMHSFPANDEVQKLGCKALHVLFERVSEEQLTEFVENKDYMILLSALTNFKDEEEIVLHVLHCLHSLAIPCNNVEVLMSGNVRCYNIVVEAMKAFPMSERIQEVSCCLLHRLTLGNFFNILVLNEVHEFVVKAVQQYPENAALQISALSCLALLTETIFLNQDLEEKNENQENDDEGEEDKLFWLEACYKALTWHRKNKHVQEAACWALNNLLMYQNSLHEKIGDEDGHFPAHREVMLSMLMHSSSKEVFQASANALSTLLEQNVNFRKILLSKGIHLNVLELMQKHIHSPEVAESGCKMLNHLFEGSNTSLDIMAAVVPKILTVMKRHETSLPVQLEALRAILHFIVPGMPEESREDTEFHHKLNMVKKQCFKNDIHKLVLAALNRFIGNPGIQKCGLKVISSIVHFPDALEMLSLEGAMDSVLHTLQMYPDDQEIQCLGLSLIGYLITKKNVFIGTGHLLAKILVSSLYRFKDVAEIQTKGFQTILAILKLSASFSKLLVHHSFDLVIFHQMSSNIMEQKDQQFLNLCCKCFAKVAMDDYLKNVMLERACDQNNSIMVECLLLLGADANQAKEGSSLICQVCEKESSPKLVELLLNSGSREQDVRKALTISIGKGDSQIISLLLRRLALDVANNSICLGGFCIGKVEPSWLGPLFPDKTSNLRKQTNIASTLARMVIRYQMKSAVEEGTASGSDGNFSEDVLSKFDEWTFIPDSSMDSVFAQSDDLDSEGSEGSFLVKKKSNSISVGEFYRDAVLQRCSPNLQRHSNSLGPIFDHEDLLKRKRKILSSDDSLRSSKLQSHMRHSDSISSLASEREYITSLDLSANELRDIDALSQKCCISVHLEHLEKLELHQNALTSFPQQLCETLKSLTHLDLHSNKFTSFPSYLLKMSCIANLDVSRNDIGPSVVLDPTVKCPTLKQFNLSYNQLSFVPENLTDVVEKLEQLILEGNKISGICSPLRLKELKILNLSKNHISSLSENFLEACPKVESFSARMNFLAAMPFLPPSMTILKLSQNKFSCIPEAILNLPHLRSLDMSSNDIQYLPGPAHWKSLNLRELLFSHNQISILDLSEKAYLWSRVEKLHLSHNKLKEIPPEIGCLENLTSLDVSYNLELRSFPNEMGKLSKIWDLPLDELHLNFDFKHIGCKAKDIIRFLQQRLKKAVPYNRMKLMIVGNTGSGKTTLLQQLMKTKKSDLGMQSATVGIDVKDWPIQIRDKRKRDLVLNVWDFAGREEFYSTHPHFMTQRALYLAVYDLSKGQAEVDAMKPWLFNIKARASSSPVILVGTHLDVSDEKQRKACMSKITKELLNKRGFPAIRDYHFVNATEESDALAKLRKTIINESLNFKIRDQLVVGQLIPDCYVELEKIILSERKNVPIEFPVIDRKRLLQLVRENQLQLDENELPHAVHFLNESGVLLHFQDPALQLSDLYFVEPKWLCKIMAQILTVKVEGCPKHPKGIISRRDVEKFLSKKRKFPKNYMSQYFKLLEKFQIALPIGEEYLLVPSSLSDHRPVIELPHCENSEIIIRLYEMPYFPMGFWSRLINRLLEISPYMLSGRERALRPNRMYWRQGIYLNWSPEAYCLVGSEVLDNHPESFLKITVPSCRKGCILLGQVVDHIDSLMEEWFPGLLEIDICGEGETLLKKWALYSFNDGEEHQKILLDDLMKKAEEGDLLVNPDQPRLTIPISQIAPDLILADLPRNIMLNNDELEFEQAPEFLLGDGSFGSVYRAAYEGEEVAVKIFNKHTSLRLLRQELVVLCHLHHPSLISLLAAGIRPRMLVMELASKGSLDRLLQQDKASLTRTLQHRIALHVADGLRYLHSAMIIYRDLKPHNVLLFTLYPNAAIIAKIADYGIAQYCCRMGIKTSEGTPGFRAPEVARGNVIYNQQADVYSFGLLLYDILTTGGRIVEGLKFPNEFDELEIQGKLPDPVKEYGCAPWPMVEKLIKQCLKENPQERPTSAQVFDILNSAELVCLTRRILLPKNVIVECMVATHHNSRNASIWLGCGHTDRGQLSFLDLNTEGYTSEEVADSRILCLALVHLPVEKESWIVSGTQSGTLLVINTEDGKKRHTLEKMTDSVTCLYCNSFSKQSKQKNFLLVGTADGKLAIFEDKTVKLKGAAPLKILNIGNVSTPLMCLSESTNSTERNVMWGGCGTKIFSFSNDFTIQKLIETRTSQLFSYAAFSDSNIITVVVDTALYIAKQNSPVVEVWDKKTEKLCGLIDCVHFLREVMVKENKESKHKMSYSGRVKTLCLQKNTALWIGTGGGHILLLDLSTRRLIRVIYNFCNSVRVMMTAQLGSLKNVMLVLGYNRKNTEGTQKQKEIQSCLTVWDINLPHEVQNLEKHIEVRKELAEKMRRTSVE

[2] = molecular target: T3, full length LRRK2 protein (Homo sapiens, UniProt Q5S007); experiment: In vitro LRRKtide kinase assay with full length recombinant LRRK2, dose-response (IC50/pIC50); assay type: biochemical; conditions: for IC50: read-out: IC50 in vitro (lrrktide)
T3 construct: compounds were tested in triplicate with full length LRRK2 protein; made in house
T3 sequence (Q5S007 whole entry): as above

[3] = pS935 level as % of control, 5 μM for 2 h, SH-SY5Y cells with stable expression of LRRK2
[4] = LRRKtide phosphorylation, dose-response
[5] = pS935 dephosphorylation, SH-SY5Y cells with stable expression of LRRK2

Row | Compound | % LRRKtide phosphorylation relative to solvent [1] [%] | Phosphorylation level relative to solvent (%) (cellular pS935 assay) (LRRK2 phospho-Ser935) | Cellular pS935 (% @ 5 μM) (LRRK2 phospho-Ser935; [3]) [%] | IC50 [2, 4] [nM] | IC50 (LRRK2 phospho-Ser935; [5]) [nM] | pIC50 cellular (pS935) (LRRK2 phospho-Ser935; [5]) | pIC50 in vitro (lrrktide) [2, 4] | Cellular pS935 (% @ 5 μM) (LRRK2 phospho-Ser935) [%] | pIC50 cellular (pS935) (LRRK2 phospho-Ser935) | IC50 (LRRK2 phospho-Ser935) [nM] | pIC50 in vitro (lrrktide) [2] | IC50 [2] [nM]
1 | CC(C)[C@H](CO)Nc1nc(Nc2cccc(Cl)c2)c2ncn(C(C)C)c2n1 [Purvalanol A] | 15.64 | 121.26 | 121.26 | 4570 |  |  |  |  |  |  |  | 
2 | CN(C)S(=O)(=O)c1ccc2c(c1)/C(=C/c1cc3c([nH]1)CCCC3)C(=O)N2 [SU6656] | 4.57 | 14.34 | 14.34 | 10 | 423 |  |  |  |  |  |  | 
3 | Cc1cc(C)c(/C=C2\C(=O)Nc3ccccc32)[nH]1 [VEGF receptor 2 kinase inhibitor III] | 2.19 | 45.08 | 45.08 | 273 | > 2000 | <5.7 | 6.56 |  |  |  |  | 
4 | CC(C)n1cnc2c(Nc3cccc(Cl)c3)nc(NCCO)nc21 [Compound 52] | 7.76 | 76.44 | 76.44 | 3930 |  |  | 5.41 |  |  |  |  | 
5 | CCC(=O)Nc1ccc2ncnc(Nc3cccc(Br)c3)c2c1 [PD 174265] | 32.67 | 67.74 | 67.74 | 8870 |  |  | 5.05 |  |  |  |  | 
6 | COc1cc2ncnc(Nc3cccc(Cl)c3)c2cc1OC [AG 1478] | 5.72 | 75.11 | 75.11 | 3730 |  |  | 5.43 |  |  |  |  | 
7 | CN(C)c1ccc(/C=C2\C(=O)Nc3ccccc32)cc1 [DMBI] | 19.33 | 54.34 | 54.34 | 1480 |  |  | 5.83 |  |  |  |  | 
8 | BPIQ-I | 17.30 | 88.55 | 88.55 | 7650 |  |  | 5.12 |  |  |  |  | 
9 | COc1cc(C(=O)N2CCC(N3CCN(C)CC3)CC2)ccc1Nc1ncc2c(n1)N(C)c1ccccc1C(=O)N2C [LRRK2 IN1] |  |  |  |  |  |  |  | 9.32 | 6.55 | 280 | 8.45 | 3.54
10 | COc1cc2ncnc(Nc3ccc(O)c(Br)c3)c2cc1OC [JAK3 inhibitor II] | 1.86 | 63.02 | 63.02 | 1200 |  |  |  |  |  |  |  | 
11 | COc1cc(OC)c(C=C2C(O)=Nc3ccccc32)c(OC)c1 [IC261] | 89.62 | 78.81 | 78.81 | > 10000 |  |  |  |  |  |  |  | 
12 | COc1cc2ncnc(Nc3ccc(OCc4ccccc4)cc3)c2cc1OC [EGFR/ErbB-2 inhibitor] | 68.24 | 67.43 | 67.43 | > 10000 |  |  | <5 |  |  |  |  | 
13 | CCN(CC)CCNC(=O)c1c(C)[nH]c(/C=C2\C(=O)Nc3ccc(Cl)cc32)c1C [SU11652] | 0.79 | 14.19 | 14.19 | 10.9 | 316 |  |  |  |  |  |  | 
14 | Cc1[nH]c(/C=C2\C(=O)Nc3ccc(S(=O)(=O)N(C)c4cccc(Cl)c4)cc32)c(C)c1C(=O)N1CCN(C)CC1 [Met kinase inhibitor] | 2.05 | 52.43 | 52.43 | 43 |  |  | 7.37 |  |  |  |  | 
15 | CCOc1cc2ncnc(Nc3cccc(Br)c3)c2cc1OCC [Compound 56] | 4.52 | 86.56 | 86.56 | 3010 |  |  | 5.52 |  |  |  |  | 
16 | O=C1Nc2ccccc2/C1=C1/Nc2ccccc2/C1=N\OCC(O)CO (stereo not drawn) [Indirubin derivative E804] | 2.23 | 101.13 | 101.13 | 685 |  |  | 6.16 |  |  |  |  | 
17 | COc1cc(N2CCOCC2)ccc1Nc1ncc(F)c(Nc2ccccc2NS(C)(=O)=O)n1 [CZC25146] |  |  | 8.62 | 1.78 | 43.6 | 7.36 | 8.75 |  |  |  |  | 
18 | CCn1cnc2c(Nc3cccc(Cl)c3)nc(N[C@H]3CCCC[C@H]3N)nc21 [Cdk1 inhibitor. CGP74514A] |  |  | 83.35 | 3470 |  |  | 5.46 |  |  |  |  | 
19 | O=C1Nc2ccc(Br)cc2/C1=C/c1cc2c([nH]1)CCCC2 [VEGF receptor 2 kinase inhibitor II] | 4.13 | 37.26 | 37.26 | 36.3 | > 2000 | <5.7 | 7.44 |  |  |  |  | 
20 | O=C1Nc2ccc3ncsc3c2/C1=C/c1cnc[nH]1 [PKR inhibitor] | 1.18 | 29.00 | 29 | 363 | 1310 | 5.88 | 6.44 |  |  |  |  | 
21 | COc1cc2ncnc(N3CCN(C(=O)Nc4ccc(Oc5ccccc5)cc4)CC3)c2cc1OC [PDGF receptor tyrosine kinase inhibitor III] | 55.86 | 72.83 | 72.83 | > 10000 |  |  | <5 |  |  |  |  | 

Continued, in another order:

Row | % LRRKtide phosphorylation relative to solvent [1] [%] | Phosphorylation level relative to solvent (%) (cellular pS935 assay) (LRRK2 phospho-Ser935) | Cellular pS935 (% @ 5 μM) (LRRK2 phospho-Ser935; [3]) [%] | IC50 [2, 4] [nM] | IC50 (LRRK2 phospho-Ser935; [5]) [nM] | pIC50 cellular (pS935) (LRRK2 phospho-Ser935; [5]) | pIC50 in vitro (lrrktide) [2, 4] | Compound | Cellular pS935 (% @ 5 μM) (LRRK2 phospho-Ser935) [%] | pIC50 cellular (pS935) (LRRK2 phospho-Ser935) | IC50 (LRRK2 phospho-Ser935) [nM] | pIC50 in vitro (lrrktide) [2] | IC50 [2] [nM]
22 | 60.51 | 100.49 | 100.49 | > 10000 |  |  | <5 | COc1ccc(CNc2nc(N(CCO)CCO)nc3c2ncn3C(C)C)cc1 [Cdk2 inhibitor III] |  |  |  |  | 
23 | 29.84 | 78.35 | 78.35 | > 10000 |  |  | <5 | O=C1Nc2ccccc2/C1=C\c1c(Cl)[nH]c2ccccc12 [Cdk1 inhibitor] |  |  |  |  | 
24 | 57.28 | 65.67 | 65.67 | > 10000 |  |  | <5 | Nc1ccc2ncnc(NCCc3ccc(Oc4ccccc4)cc3)c2c1 [NF-KB activation inhibitor] |  |  |  |  | 
25 |  |  | 85.53 | 1790 |  |  | 5.75 | O=C1Nc2ccccc2/C1=C1/Nc2ccccc2/C1=N\O [Indirubin-3'-monoxime] |  |  |  |  | 
26 | 22.60 | 69.85 | 69.85 | > 10000 |  |  | <5 | COc1cc2ncnc(Nc3ccc(NC(=O)c4ccccc4)cc3)c2cc1OC [Aurora kinase inhibitor II] |  |  |  |  | 
27 | 38.94 | 106.06 | 106.06 | > 10000 |  |  | <5 | CC(=O)O/N=C1/C(=C2/C(=O)Nc3cc(Br)ccc32)Nc2ccccc21 [GSK-3 inhibitor X] |  |  |  |  | 
28 | 7.36 | 121.05 | 121.05 | 2030 |  |  |  | CC(C)[C@H](CO)Nc1nc(Nc2cc(N)cc(Cl)c2)c2ncn(C(C)C)c2n1 [Aminopurvalanol A] |  |  |  |  | 
29 | 26.67 | 60.83 | 60.83 | 24.6 |  |  | 7.61 | CCOC(=O)c1c(C)[nH]c(/C=C2\C(=O)Nc3ccccc32)c1C [VEGF receptor 2 kinase inhibitor I] |  |  |  |  | 
30 | 2.99 | 94.62 | 94.62 | 2100 |  |  |  | COc1ccc2c(c1)/C(=C/c1cnc[nH]1)C(=O)N2 [SU9516] |  |  |  |  | 
31 | 0.73 | 13.15 | 13.15 | 0.91 | 1.18 | 8.93 | 9.04 | Nc1nc(Nc2ccc(S(N)(=O)=O)cc2)nn1C(=S)Nc1c(F)cccc1F [Cdk1/2 inhibitor III] |  |  |  |  | 
32 |  |  | 72.69 | 297 |  |  | 6.53 | PKR inhibitor. negative control |  |  |  |  | 
33 | 27.12 | 61.51 | 61.51 | 936 |  |  | 6.03 | COc1cc2ncnc(Nc3ccc(Oc4ccccc4)cc3)c2cc1OC [Src kinase inhibitor I] |  |  |  |  | 

Reference: article PMC4042160, “In silico, in vitro and cellular analysis with a kinome-wide inhibitor panel correlates cellular LRRK2 dephosphorylation to inhibitor activity on LRRK2” (Frontiers in Molecular Neuroscience, 2014)
